# Experimental data from ChEMBL document CHEMBL1201862, “PubChem BioAssay data set” (2004).
# Active and inactive are the calls of the source.
# Assays:
# [1] = Counterscreen for […] of the human trace amine associated receptor 1 (TAAR1): Fluorescence-based cell-based high throughput dose response assay to identify nonselective Ga16 agonists.; format: functional
# [2] = Counterscreen for antagonists of the human trace amine associated receptor 1 (hTAAR1): Fluorescence-based cell-based high throughput dose response assay to identify nonselective Ga16 antagonists.; format: functional
# [3] = viability loss in HEK293T cells – cell-based, cherry-picks, cytotoxicity control for HIV Vif inhibitor project, dose response (AID 652208); format: functional
# [4] = system: Vero; test: viability loss in Vero cells – cell-based, plate reader, cherry-pick samples, cytotoxicity control, dose response (AID 687020); format: functional; conditions: Chlorocebus sabaeus
# [5] = general mammalian cell viability loss – inhibitor set, cherry-pick, set 2, cytotoxicity control for miR-122 modulator project, dose response (AID 720697); format: functional, cell-based
# [6] = target: Photoreceptor-specific nuclear receptor (Homo sapiens, UniProt Q9Y5X4); format: functional, cell-based;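 note: CHO-S cells with Gal4-NCOR and VP16-NR2E3 two-hybrid luciferase reporter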
# [7] = cells; format: functional, cell-based
# [8] = target: Nuclear receptor subfamily 0 group B member 1 (Homo sapiens, UniProt P51843); format: functional, cell-based;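 note: HEK293T cells transfected with SF-1 and DAX-1 plus StAR promoter luciferase reporter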
# [9] = target: T1, Oxysterols receptor LXR-beta (Homo sapiens, UniProt P55055); format: functional, cell-based;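 note: Cell-based luminescence dose-response assay of agonist activity at LXR, run as a confirmatory counterscreen to a daf-12 agonist screen; HEK293 cells with Gal4-LXR fusion and GAL4-driven luciferase reporter; agonist potency from rising luciferase signal of a Gal4-LXR reporter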
# T1 sequence (P55055 whole entry): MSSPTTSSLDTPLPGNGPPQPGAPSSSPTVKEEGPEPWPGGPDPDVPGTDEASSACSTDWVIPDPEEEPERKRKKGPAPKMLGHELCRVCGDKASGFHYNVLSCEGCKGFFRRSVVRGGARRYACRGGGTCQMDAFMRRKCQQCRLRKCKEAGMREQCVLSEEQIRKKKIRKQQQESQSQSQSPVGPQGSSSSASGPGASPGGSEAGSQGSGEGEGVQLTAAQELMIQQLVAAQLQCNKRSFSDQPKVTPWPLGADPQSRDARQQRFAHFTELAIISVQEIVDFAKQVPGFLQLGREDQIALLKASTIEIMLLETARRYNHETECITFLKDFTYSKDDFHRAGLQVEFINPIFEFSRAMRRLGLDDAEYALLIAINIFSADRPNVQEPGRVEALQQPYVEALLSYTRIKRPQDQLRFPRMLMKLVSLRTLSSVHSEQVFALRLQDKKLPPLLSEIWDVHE
# [10] = cells
# [11] = system: Cryptococcus neoformans; test: PubChem AID 686997; format: functional, organism-based
# [12] = target: T2, Voltage-gated N-type calcium channel alpha-1B subunit/Amyloid beta A4 precursor protein-binding family A member 1 (Homo sapiens, UniProt Q00975+Q02410); format: protein assay
# [13] = target: T2, Voltage-gated N-type calcium channel alpha-1B subunit/Amyloid beta A4 precursor protein-binding family A member 1; format: protein assay; remark: listed apart in the source
# [14] = target: Beta-lactamase (Pseudomonas aeruginosa, UniProt Q79MP6);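 note: biochemical dose-response test of metallo-beta-lactamase enzyme inhibition, read out by epi-absorbance; purified recombinant IMP-1 metallo-beta-lactamase with nitrocefin as substrate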
# [15] = target: Beta-lactamase (Salmonella choleraesuis (strain SC-B67), UniProt Q5J463)
# [16] = target: ORF 73 (Human herpesvirus 8, UniProt O40947); test: KSHV LANA DNA-binding disruption – biochemical, fluorescence polarization, cherry-picked samples, dose response (AID 504725); set-up: species or system Human gammaherpesvirus 8;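 note: fluorescence polarization of a labeled DNA duplex reporting LANA DNA binding; potency is for inhibitors that block LANA binding to the DNA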
# [17] = target: T3, Insulin-degrading enzyme (Homo sapiens, UniProt P14735); test: recombinant IDE activation, cell-free – biochemical, fluorescence polarization, counter-screen for IDE activator project, dose response (AID 588681)
# T3 sequence (P14735 whole entry): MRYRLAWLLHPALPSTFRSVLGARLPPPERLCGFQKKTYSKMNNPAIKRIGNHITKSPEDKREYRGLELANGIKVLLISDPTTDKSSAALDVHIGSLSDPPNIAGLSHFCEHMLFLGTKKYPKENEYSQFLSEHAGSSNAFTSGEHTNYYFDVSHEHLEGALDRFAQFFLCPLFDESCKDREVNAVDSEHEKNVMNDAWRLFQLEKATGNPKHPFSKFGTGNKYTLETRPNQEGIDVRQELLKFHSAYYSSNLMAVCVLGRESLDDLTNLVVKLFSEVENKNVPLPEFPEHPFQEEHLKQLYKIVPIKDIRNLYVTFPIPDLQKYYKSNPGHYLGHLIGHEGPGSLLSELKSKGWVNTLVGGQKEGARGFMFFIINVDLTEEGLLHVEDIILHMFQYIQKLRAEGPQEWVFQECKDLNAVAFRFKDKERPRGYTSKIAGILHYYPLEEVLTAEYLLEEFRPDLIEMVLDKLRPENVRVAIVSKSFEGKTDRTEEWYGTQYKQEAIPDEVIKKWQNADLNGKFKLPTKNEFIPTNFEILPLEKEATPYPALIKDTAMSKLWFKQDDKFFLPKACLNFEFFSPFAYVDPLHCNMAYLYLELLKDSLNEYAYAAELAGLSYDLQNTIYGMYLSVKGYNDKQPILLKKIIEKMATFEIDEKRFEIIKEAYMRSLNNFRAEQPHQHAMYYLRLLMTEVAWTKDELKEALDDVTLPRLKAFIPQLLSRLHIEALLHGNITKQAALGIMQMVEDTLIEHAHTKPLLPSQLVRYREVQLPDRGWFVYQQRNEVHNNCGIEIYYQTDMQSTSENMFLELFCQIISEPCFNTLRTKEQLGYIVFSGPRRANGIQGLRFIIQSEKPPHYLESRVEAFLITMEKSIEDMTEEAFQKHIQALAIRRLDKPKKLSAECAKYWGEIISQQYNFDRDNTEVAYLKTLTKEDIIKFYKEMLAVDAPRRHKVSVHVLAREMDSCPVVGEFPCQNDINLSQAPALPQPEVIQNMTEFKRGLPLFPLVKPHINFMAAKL
# [18] = target: Keap1/Nrf2 (Homo sapiens, UniProt Q14145); test: disruptors of Keap1 binding to Nrf2 peptide – biochemical, fluorescence polarization, cherry-picked samples, dose response (AID 588683)
# [19] = target: T3, Insulin-degrading enzyme; test: cellular IDE activation of Abeta substrate cleavage – fluorescence polarization, HEK cells, dose response (AID 588439); format: functional, cell-based
# [20] = system: HEK293; test: membrane integrity loss in HEK cells – cell-based, fluorescence, cytotoxicity control for IDE activator project, dose response (AID 588440); format: functional; conditions: Homo sapiens;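 note: cytotoxicity by LDH release measuring loss of membrane integrity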
# [21] = system: HEK293; test: optical interference in Abeta FP readout, dose response, artefact control for IDE activator project, biochemical, fluorescence polarization (AID 588442); format: functional, cell-based; conditions: Homo sapiens
# [22] = target: Long-chain-fatty-acid--AMP ligase FadD28 (Mycobacterium tuberculosis, UniProt P9WQ59); test: Fluorescence polarization aasay to screen for inhibitors that compete for the binding of FadD28 to a bisubstrate Measured in Biochemical System Using Plate Reader - 2147-01_Inhibitor_Dose_CherryPick_Activity.; format: functional, Mycobacterium tuberculosis H37Rv
# [23] = target: Mu-type opioid receptor (Homo sapiens, UniProt P35372); format: functional, cell-based;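 note: U2OS cells with beta-arrestin recruitment to OPRM1 by beta-gal complementation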
# [24] = target: 5-hydroxytryptamine receptor 2A (Mus musculus, UniProt P35363); format: functional, cell-based;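 note: CHO-K1 cells with tagged receptor and beta-arrestin; agonist potency measured as compound-induced activation of the receptor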
# [25] = target: Potassium channel subfamily K member 9 (Homo sapiens, UniProt Q9NPC2); test: KCNK9 flux blockade, concentration-response – cell-based, FluxOR thallium flux, selectivity assay for TASK1 inhibitor project, SAR follow-up (AID 652211); format: functional;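 note: potency is for inhibitors of the channel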
# [26] = cells; format: functional, cell-based; remark: listed apart in the source
# [27] = cells; format: functional, cell-based; remark: listed apart in the source
# [28] = HEK-293T viability loss after treatment – luminescence, T-cell screen hits, cytotoxicity control for TCR NF-kB inhibitor project, dose response (AID 489026); format: functional, cell-based;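 note: cells exposed to compound about 14 hours before the viability readout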
# [29] = target: T4, Heat shock factor protein 1 (Mus musculus, UniProt P38532); test: enhancement of HSF1-driven luciferase signal – cell-based, NIH3T3, luminescence, dose retest, confirmation (AID 435004); format: functional;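 note: stress induced by proteasome inhibitor MG132 added 30 min after compound; luciferase reporter driven by HSF1 response element in NIH3T3 cells; actives raise luminescence as potentiators of the MG132 stress response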
# T4 sequence (P38532 whole entry): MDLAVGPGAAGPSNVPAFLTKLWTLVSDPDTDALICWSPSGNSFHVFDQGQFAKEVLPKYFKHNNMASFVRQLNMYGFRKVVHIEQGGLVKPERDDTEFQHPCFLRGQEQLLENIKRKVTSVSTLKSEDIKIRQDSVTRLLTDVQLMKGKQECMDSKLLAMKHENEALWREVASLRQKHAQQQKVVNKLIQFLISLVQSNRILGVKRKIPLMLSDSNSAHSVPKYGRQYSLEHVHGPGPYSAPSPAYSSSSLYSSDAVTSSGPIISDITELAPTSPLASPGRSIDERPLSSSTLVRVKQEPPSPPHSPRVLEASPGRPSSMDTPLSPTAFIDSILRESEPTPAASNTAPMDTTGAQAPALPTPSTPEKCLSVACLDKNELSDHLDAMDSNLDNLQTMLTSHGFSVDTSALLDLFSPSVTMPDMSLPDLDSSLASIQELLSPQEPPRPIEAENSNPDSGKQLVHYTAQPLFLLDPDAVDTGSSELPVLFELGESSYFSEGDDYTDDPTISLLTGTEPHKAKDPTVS
# [30] = system: BJ; test: growth inhibition of engineered Ras-driven BJ cells – cell-based, alamar blue fluorescence, cherrypicked samples, dose response (AID 2631); format: functional; conditions: Homo sapiens;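 note: confirmatory dose-response assay in RAS-dependent BJ fibroblasts engineered with TERT, LT and ST, with cytotoxicity read by fluorescence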
# [31] = system: INS1; test: INS-1E survival protection against cytokine death – cell-based, luminescence, retest, dose response (AID 449756); format: functional; conditions: Rattus norvegicus;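 note: cell death triggered by IL-1 beta plus TNF-alpha plus IFN-gamma mixture; protective hits raise ATP signal compared with cytokine alone wells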
# [32] = system: P388/ADR; test: cells; format: functional; conditions: Mus musculus
# [33] = system: SN12K1; test: cells; format: functional; conditions: Homo sapiens
# [34] = system: P388; test: cells; format: functional; conditions: Mus musculus
# [35] = blockers of HIV-1 envelope-mediated cell-cell fusion – cherry-pick, dose response (AID 652057); format: functional, cell-based
# [36] = viability loss in CEM21 cells – cell-based, CellTiter-Glo luminescence, cherry-picked, cytotoxicity control for viral fusion inhibitor project, dose response (AID 652042); format: functional;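 note: potency for signal decrease meaning cytotoxicity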
# [37] = blockers of HIV-1 ZM109 envelope-driven cell-cell fusion – HeLa effector, CEM target cells, luciferase, cherry-pick, dose response (AID 652058); format: functional, cell-based;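 note: luciferase signal from HIV-1 Env mediated cell-cell fusion of effector and target cells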
# [38] = target: Paired box protein Pax-8 (Homo sapiens, UniProt Q06710); test: PAX8 transcriptional activity inhibition in RMG-I – RMG-I cells, luciferase, cherry-pick, dose response (AID 687027); format: functional, cell-based;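 note: luciferase reporter driven by Pax8 target thyroperoxidase promoter measured by SteadyGlo luminescence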
# [39] = off-target signal loss in HeLa-CEM21 co-culture – HeLa F-luc CTL cells, cherry-picked, counter-screen for HIV-1 Env fusion inhibitor project, dose response (AID 652040); format: functional, cell-based;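 note: potency for signal decrease marking cytotoxic or nonspecific inhibition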
# [40] = HIV-1 AD8 envelope cell-cell fusion blockers – cherry-pick, dose response (AID 652062); format: functional, cell-based;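 note: luciferase signal from cell-cell fusion driven by HIV-1 clade B AD8 Env; potency is for inhibitors of fusion seen as a drop in luminescence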
# T2 sequence (Q00975 whole entry): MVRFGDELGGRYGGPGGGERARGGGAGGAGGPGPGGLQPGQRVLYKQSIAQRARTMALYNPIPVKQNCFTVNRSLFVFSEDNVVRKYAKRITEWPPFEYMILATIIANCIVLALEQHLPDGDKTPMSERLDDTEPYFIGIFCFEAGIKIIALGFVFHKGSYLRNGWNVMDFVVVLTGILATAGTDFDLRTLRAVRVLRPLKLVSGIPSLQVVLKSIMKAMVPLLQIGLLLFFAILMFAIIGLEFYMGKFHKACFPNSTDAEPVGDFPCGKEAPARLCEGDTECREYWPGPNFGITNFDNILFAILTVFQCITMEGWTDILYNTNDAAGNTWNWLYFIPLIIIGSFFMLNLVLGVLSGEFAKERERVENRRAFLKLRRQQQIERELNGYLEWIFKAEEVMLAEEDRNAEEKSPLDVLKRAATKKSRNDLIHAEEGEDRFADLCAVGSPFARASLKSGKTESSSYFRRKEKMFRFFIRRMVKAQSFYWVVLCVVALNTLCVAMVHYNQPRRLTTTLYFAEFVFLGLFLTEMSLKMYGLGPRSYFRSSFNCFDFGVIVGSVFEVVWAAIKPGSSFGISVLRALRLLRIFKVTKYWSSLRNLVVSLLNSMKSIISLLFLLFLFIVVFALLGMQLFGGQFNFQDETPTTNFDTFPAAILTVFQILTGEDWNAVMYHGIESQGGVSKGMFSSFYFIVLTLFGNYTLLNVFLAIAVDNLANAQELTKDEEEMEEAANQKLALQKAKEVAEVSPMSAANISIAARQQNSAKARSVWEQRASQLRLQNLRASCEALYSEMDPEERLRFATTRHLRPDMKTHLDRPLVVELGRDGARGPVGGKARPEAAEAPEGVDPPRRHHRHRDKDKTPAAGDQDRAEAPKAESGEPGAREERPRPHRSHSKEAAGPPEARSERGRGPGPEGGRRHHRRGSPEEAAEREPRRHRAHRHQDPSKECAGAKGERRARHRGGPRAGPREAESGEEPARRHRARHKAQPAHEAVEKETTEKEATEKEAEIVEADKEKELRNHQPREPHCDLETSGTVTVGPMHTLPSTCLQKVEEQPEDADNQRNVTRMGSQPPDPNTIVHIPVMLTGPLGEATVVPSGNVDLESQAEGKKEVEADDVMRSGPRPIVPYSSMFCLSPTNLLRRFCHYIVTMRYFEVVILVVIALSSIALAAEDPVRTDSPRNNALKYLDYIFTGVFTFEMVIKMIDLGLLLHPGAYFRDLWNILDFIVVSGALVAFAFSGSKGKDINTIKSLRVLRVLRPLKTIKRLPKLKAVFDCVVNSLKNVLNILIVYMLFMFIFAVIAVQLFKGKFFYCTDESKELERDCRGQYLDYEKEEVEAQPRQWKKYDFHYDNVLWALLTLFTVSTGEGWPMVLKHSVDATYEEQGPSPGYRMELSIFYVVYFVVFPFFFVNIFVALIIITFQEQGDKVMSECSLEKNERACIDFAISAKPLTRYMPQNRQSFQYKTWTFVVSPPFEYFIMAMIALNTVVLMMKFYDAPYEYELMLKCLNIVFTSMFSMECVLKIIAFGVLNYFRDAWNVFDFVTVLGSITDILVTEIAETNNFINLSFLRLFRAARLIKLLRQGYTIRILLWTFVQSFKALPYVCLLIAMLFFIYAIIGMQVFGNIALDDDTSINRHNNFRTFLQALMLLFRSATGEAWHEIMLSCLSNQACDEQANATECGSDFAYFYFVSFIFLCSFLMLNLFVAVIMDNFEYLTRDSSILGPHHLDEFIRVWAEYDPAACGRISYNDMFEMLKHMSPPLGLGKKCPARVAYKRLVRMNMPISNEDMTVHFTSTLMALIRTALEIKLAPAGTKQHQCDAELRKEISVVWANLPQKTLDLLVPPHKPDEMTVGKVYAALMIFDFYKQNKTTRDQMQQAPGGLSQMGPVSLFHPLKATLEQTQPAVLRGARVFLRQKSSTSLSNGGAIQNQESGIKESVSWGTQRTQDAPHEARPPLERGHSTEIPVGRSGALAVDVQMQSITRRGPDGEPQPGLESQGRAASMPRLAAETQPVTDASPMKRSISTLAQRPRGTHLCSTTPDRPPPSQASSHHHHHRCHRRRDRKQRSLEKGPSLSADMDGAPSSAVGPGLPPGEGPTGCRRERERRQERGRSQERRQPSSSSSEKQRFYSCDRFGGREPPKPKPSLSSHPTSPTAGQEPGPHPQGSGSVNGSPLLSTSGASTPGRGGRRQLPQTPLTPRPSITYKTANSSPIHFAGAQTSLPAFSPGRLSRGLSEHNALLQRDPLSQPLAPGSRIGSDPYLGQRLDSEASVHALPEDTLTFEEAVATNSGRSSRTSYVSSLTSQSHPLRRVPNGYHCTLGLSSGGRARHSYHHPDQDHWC
# T2 sequence (Q02410 whole entry): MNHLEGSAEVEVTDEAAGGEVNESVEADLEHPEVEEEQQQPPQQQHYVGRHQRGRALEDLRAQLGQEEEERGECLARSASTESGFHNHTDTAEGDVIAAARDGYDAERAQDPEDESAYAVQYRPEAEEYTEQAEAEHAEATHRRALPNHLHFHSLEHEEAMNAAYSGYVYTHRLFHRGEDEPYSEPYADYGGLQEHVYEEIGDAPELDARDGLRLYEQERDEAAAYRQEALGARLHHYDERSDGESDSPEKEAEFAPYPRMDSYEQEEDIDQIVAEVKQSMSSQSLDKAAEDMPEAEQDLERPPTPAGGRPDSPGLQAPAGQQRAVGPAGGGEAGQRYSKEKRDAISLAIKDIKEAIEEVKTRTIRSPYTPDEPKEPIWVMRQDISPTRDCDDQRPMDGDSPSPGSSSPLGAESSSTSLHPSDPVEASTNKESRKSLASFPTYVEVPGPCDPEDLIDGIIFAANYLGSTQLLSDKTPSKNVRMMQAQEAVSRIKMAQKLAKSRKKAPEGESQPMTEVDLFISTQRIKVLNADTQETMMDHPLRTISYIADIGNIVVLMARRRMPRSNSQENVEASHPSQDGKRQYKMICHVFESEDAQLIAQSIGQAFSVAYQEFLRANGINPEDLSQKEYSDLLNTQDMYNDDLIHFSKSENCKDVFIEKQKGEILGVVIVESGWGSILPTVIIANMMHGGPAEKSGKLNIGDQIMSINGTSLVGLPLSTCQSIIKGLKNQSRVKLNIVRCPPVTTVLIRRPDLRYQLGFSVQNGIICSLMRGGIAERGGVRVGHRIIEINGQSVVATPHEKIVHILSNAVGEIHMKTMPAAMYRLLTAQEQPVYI
# Sequence of Photoreceptor-specific nuclear receptor (Q9Y5X4 whole entry, the tested form may be a part): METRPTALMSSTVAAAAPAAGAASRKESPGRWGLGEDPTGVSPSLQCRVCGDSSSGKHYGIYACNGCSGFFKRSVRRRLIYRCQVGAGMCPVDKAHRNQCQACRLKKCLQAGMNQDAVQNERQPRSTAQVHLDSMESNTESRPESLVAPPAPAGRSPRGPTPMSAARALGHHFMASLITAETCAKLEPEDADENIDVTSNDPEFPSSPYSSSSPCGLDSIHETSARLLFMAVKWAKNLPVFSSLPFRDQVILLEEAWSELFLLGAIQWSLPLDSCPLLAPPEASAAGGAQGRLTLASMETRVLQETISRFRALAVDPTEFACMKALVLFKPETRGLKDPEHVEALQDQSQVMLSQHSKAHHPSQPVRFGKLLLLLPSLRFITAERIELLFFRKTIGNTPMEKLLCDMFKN
# Sequence of ORF 73 (O40947 whole entry): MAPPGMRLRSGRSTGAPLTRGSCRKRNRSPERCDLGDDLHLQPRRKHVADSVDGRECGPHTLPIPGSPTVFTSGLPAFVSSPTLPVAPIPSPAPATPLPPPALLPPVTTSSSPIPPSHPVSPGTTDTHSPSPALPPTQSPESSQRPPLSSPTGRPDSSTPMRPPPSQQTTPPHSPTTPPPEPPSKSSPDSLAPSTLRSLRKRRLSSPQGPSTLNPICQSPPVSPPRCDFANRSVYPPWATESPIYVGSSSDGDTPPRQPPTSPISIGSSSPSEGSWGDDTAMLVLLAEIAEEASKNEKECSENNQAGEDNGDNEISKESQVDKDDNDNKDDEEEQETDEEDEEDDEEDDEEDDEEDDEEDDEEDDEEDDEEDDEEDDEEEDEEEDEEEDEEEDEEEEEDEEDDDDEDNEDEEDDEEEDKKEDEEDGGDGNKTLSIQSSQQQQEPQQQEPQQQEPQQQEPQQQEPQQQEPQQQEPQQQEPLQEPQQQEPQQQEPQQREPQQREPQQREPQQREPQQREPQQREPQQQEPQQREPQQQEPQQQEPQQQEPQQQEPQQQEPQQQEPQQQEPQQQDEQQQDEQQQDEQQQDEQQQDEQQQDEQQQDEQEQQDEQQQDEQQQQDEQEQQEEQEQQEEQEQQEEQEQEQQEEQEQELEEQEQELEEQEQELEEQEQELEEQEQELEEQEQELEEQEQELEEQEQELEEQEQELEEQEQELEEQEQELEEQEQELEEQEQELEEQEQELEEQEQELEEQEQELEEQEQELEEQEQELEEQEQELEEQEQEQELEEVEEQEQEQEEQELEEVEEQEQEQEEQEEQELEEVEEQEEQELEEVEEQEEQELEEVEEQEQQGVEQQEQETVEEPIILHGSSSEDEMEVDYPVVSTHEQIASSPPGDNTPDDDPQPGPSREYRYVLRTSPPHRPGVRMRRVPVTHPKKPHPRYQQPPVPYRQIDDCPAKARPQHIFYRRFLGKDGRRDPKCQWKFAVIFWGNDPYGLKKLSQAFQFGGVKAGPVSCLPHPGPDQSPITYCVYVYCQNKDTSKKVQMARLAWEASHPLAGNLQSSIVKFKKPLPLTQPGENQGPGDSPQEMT
# Sequence of Paired box protein Pax-8 (Q06710 whole entry, the tested form may be a part): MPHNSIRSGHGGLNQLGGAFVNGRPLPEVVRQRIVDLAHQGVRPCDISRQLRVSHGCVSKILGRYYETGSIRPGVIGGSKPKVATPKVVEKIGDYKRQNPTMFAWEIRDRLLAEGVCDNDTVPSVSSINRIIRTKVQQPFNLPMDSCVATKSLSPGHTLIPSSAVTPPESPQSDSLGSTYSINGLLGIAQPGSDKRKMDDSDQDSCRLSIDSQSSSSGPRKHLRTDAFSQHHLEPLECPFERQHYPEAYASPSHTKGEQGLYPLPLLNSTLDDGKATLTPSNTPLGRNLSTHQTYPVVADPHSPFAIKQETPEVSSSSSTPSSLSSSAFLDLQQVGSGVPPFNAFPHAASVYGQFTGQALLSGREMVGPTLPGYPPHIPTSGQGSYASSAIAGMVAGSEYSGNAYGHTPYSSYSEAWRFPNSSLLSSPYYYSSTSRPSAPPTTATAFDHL
smiles,measurement,setting,value
Cc1nn(Cc2c(F)c(F)c(F)c(F)c2F)c(C)c1NC(=O)c1ccc(COc2ccccc2Cl)cc1,EC50,[1],> 29.9 µM (inactive)
same,IC50,[2],> 29.9 µM (inactive)
Cc1cc2cc(C#N)c(SCC(=O)Nc3nonc3C)nc2cc1C,AC50,[3],34.9 µM (active)
O=C(COc1ccccc1)Nc1ccc(N2CCN(C(=O)c3cccs3)CC2)cc1,AC50,[4],35.4 µM (active)
O=C(c1ccco1)c1cn(Cc2ccccc2Cl)c2ccccc12,AC50,[5],9.08 µM (active)
Cc1ccnc(NC(=O)Cc2ccc(-c3ccccc3)cc2)c1,IC50,[6],0.741 µM (active)
same,IC50,[7],> 67.5 µM (inactive)
same,IC50,[8],> 67.5 µM (inactive)
same,EC50,[9],> 67.5 µM (inactive)
same,EC50,[10],> 67.5 µM (inactive)
COCCN1C(=S)N[C@@H](c2ccccc2)C(C(=O)OC)=C1C,AC50,[11],> 84 µM (inactive)
O=C1c2cccc3c(O)ccc(c23)C(=O)N1Cc1ccco1,IC50,[12],9.17 µM (active)
same,IC50,[13],> 50 µM (inactive)
same,IC50,[14],14.1 µM (inactive)
same,IC50,[15],7.5 µM (active)
same,AC50,[16],0.966 µM (active)
same,EC50,[17],> 54.7 µM (inactive)
same,AC50,[18],1.5 µM (active)
same,EC50,[19],> 54.7 µM (inactive)
same,IC50,[20],> 89.3 µM (inactive)
same,EC50,[21],> 54.7 µM (inactive)
Cc1cccc(NC(=O)Cn2c(=O)oc3ccccc32)n1,AC50,[22],27.9 µM (active)
CN1C[C@H](CO)C[C@@H]2c3cccc4[nH]cc(c34)C[C@H]21,EC50,[23],92.5 µM (inactive)
same,EC50,[24],0.0819 µM (active)
CCOc1ccccc1C(=O)Nc1cccc(NC(=O)c2ccccc2OC)c1,IC50,[25],1.98 µM (active)
CC[C@@]1(O)C(=O)OCc2c1cc1n(c2=O)Cc2cc3c(N)cccc3nc2-1 [9-AMINOCAMPTOTHECIN],EC50,[26],> 350 µM (not active)
same,EC50,[27],> 350 µM (not active)
same,IC50,[28],> 80 µM (inactive)
same,EC50,[29],> 260 µM (inconclusive)
same,EC50,[30],0.00718 µM (active)
same,AC50,[31],2.13 µM (active)
same,GI50,[32],< 0.0174 µM (active)
same,GI50,[33],< 0.0227 µM (active)
same,GI50,[34],< 0.0119 µM (active)
same,IC50,[6],0.896 µM (active)
same,AC50,[35],< 0.26 µM (active)
same,AC50,[36],2.47 µM (active)
same,AC50,[37],0.463 µM (active)
same,AC50,[38],< 0.26 µM (active)
same,AC50,[39],< 0.26 µM (active)
same,AC50,[40],0.348 µM (active)
